Assay results: article PMC12470129, “New Derivatives of 2-(Cyclohexylamino)thiazol-4(5H)-one as Strong Inhibitors of 11β-Hydroxysteroid Dehydrogenase Type 1: Synthesis, Antiproliferative and Redox-Modulating Activity” (International Journal of Molecular Sciences, 2025)
Entries after “also recorded” stand apart in the source; their conditions may differ.

What was measured:
[1] = test system: MDA-MB-231 cells; test: MTS assay, MDA-MB-231; format: cell-based, human; conditions: for cell metabolic activity down-regulated to (MTS): MDA-MB-231, 72 h, strongest effects
Protocol: (§1) Human fibroblast (BJ; Cat# CRL-2522), human pancreatic cancer (PANC-1; Cat# CRL-1469), human breast cancer (MDA-MB-231; Cat# HTB-26); human brain glioma cells (U-118 MG; Cat# HTB-15), human melanoma (SK-MEL-30; Cat# ACC 151) and human colon carcinoma (Caco-2; Cat# HTB-37) were purchased from ATCC (Manassas, VA, USA) or DSMZ (Braunschweig, Germany). The cell lines were routinely maintained in the medium recommended by the manufacturer—MEM, DMEM, or RPMI (Corning, New York, NY, USA) with L-glutamine, 4.5 g/L glucose, and sodium pyruvate and supplemented with 10% FBS for BJ, PANC-1, MDA-MB-231, U-118 MG, and SK-MEL-30 or 20% FBS for Caco-2. All cell lines were cultured in a humidified CO2 incubator at 37 °C. For assays, cells were seeded at a constant density of 5 × 10^3 cells/0.32 cm^2 for Caco-2, PANC-1, MDA-MB-231, U-118 MG, and SK-MEL-30 or 2 × 10^3 cells/0.32 cm^2 for BJ.
(§2) MTS assay was performed as described elsewhere. Cell lines were seeded in a 96-well plate 24 h prior to treatment. Compounds 3a–3i were tested in a 10–500 µM concentration range and treated for 72 h. Next, the MTS solution was added for 3h and incubated at 37 °C. Absorbance was measured at 590 nm and 620 nm wavelengths using a Synergy H1 microplate reader (BioTek Instruments, San Diego, CA, USA).

[2] = molecular target: T1, 11β-HSD1 (Homo sapiens, UniProt P28845); test: 11β-HSD1 inhibition assay (cortisone to cortisol, human liver microsomes, cortisol ELISA); format: biochemical; conditions: for inhibition at 10 µM: at a concentration of 10 µM; for inhibition at 10 µM / IC50: human liver microsomes; for selectivity 11β-HSD1 versus 11β-HSD2: compared on % inhibition at 10 µM, versus carbenoxolone; for IC50: unit printed in text (b17-b19)
T1 construct: human liver microsomes were used as a source of the 11β‐HSD1 enzyme; tissue XenoTech Lot No.1410013; host or cells: pooled human liver microsomes, mixed gender
T1 sequence (P28845 whole entry): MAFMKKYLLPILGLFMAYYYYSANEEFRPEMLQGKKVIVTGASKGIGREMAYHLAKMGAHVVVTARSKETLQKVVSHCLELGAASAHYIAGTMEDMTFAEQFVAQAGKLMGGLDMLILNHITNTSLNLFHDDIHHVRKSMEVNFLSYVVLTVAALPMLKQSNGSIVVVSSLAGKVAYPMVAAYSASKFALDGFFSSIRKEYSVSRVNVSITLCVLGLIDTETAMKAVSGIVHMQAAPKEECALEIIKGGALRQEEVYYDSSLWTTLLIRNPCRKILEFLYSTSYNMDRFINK
Protocol: 11β-Hydroxysteroid dehydrogenase type 1 and type 2 inhibition assays were performed as previously described. For more details, see the Supplementary Materials.
Detailed protocols of enzyme inhibition assays
1. Inhibition of 11β‐HSD Assays […]
tetrasodium salt, phosphate buffer powder, (Sigma‐Aldrich, Poznań, Poland), Pooled human liver microsomes, mixed gender, 1 mL, 20 mg/mL Lot No.1410013 ‐ XenoTech, Cortisol Elisa Ref DkO001 Lot […]
No. L211008799 – (Cloud‐Clone Corp., Wuhan, China), PBS Lot No. H161008 (Pan Biotech, Aidenbach, […]
liver microsomes were used as a source of the 11β‐HSD1 enzyme. Standard 96‐well microplates were filled with a reagent mixture: cortisone/NADPH (20 μ l, to obtain a final concentration of 200 nM / 2 μ M), […]
water. The resulting solution (final volume 100 μ l) was incubated for 2.5 h at 37°C. To stop the reaction, 10 μl of a 100 μM solution of 18β‐glycyrrhetinic acid in PBS was added. Cortisol levels resulting from the reaction were measured using a commercially available ELISA kit.
(§3) Solvents and reagents: 18‐beta‐glycyrrhetinic acid – (Acros Organic, Geel, Belgium), cortisone, NAD cofactor, phosphate buffer powder (Sigma‐Aldrich, Poznań, Poland), Human Kidney Microsomes, […]
(§4) ‐ (DiaMetra, Spello, Italy), Enzyme‐Linked Immunosorbent Assay (ELISA) Kit for 11‐Beta‐ Hydroxysteroid Dehydrogenase Type 2 Lot No. L191113457 ‐ (Cloud‐Clone Corp., Wuhan, China), PBS Lot No. H161008 (Pan Biotech, Aidenbach, Germany). […]
(§5) kidney microsomes were used as a source of the 11β‐HSD2 enzyme. Standard 96‐well microplates were filled with a reagent mixture: cortisol/NAD+ (20 μL, to obtain a final concentration of 200 nM / 2 μM), […]
(§6) The resulting solution (final volume of 100 μL) was incubated for 2.5 h at 37°C. […]
(§7) levels were measured using a commercially available ELISA kit.
(§8) 1.3. Determination of IC50 […]
(§9) conditions described in the sections above. Analogous assays without added inhibitors were performed as controls. The IC₅₀ value, defined as the concentration of inhibitor causing a 50% reduction in cortisol or cortisone, was read directly from the graph.

[3] = test system: SK-MEL-30 cells; test: MTS assay, SK-MEL-30; format: cell-based, human; conditions: for cell metabolic activity down-regulated to (MTS): SK-MEL-30, 72 h, strongest effects
Protocol: as §1, §2

[4] = molecular target: T2, 11β-HSD2 (Homo sapiens, UniProt P80365); test: 11β-HSD2 inhibition assay (cortisol to cortisone, human kidney microsomes, cortisol ELISA); format: biochemical; conditions: at a concentration of 10 µM
T2 construct: human kidney microsomes were used as a source of the 11β‐HSD2 enzyme; tissue XenoTech Lot No. 1710160; host or cells: human kidney microsomes, mixed gender
T2 sequence (P80365 1-405): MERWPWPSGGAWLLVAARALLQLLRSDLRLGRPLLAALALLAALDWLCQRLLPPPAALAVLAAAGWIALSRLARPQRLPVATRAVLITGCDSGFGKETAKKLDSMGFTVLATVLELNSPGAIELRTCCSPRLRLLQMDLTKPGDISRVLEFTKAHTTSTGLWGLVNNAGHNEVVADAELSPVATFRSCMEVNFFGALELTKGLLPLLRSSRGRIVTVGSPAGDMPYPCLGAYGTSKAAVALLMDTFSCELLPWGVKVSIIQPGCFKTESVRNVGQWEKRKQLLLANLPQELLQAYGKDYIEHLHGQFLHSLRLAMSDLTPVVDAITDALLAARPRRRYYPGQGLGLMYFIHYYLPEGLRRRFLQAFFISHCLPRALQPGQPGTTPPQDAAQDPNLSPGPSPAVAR
Protocol: 11β-Hydroxysteroid dehydrogenase type 1 and type 2 inhibition assays were performed as previously described. For more details, see the Supplementary Materials. […]
as §3, §4, §5, §6, §7, §8, §9

[5] = test system: U-118 MG cells; test: MTS assay, U-118 MG; format: cell-based, human; conditions: 72 h
Protocol: as §1, §2

[6] = test system: Caco-2 cells; test: MTS assay, Caco-2; format: cell-based, human; conditions: for cell metabolic activity down-regulated to (MTS): Caco-2, 72 h, strongest effects
Protocol: as §1, §2

[7] = test system: Caco-2 cells; test: Intracellular redox homeostasis (ROS, RNS, GSH), Caco-2; format: cell-based, human; conditions: Caco-2, 500 µM, 72 h
Protocol: as §1
(§10) Based on the MTS assay, a toxic concentration of 500 µM of each compound was selected for redox analysis for all cell lines. Cell lines were seeded at the standard density in 96-well black plates. […] The signal measurement was taken with a Synergy H1 microplate reader (BioTek Instruments, CA, USA).

[8] = test system: PANC-1 cells; test: MTS assay, PANC-1; format: cell-based, human; conditions: PANC-1, 72 h
Protocol: as §1, §2

[9] = test system: BJ cells; test: Intracellular redox homeostasis (ROS, RNS, GSH), BJ; format: cell-based, human; conditions: 500 µM, 72 h
Protocol: as §1, §10

[10] = test system: SK-MEL-30 cells; test: Intracellular redox homeostasis (ROS, RNS, GSH), SK-MEL-30; format: cell-based, human; conditions: SK-MEL-30, 500 µM, 72 h
Protocol: as §1, §10

inhibition at 10 µM [2] [%]	IC50 [2] [nM]	inhibition at 10 µM [4] [%]	Compound	cell metabolic activity down-regulated to (MTS) [1]	concentration at which a decrease in cell viability / metabolic activity is observed ([1]; MDA-MB-231, MTS, 72 h) [µM]	change of cell viability / metabolic activity ([1]; MDA-MB-231, MTS, 72 h, 10–500 µM)	selectivity 11β-HSD1 versus 11β-HSD2 [2]	cell metabolic activity down-regulated to (MTS) [3]	change of cell viability / metabolic activity ([3]; SK-MEL-30, MTS, 72 h, 10–500 µM)	highest increase in proliferation (metabolic activity, MTS) [5]	cell metabolic activity down-regulated to (MTS) [6]	concentration at which a decrease in cell viability is observed ([6]; Caco-2, MTS, 72 h)	change of cell viability / metabolic activity ([6]; Caco-2, MTS, 72 h, 10–500 µM)	ROS level [7]	highest increase in proliferation (metabolic activity, MTS) [8]	ROS level [9]	ROS level [10]
90.2 ± 1.59	70 ± 8	47.2 ± 1.17	O=C1N=C(NC2CCCCC2)SC1c1ccc(Br)cc1 (stereo not drawn) [Compound 3g, 5-(4-Bromophenyl)-2-(cyclohexylamino)thiazol-4(5H)-one]	30–54%	75	vigorous inhibitory activity	greater selectivity than the standard compound	30–54%	vigorous inhibitory activity	115–134%	30–54%	1 µM	vigorous inhibitory activity	–	–	–	–
27.5 ± 2.12	> 10000	42 ± 2.5	CC1SC(NC2CCCCC2)=NC1=O (stereo not drawn) [Compound 3a, 2-(Cyclohexylamino)-5-methylthiazol-4(5H)-one]	–	–	–	greater inhibitory activity towards 11β-HSD2 than 11β-HSD1	–	–	115–134%	–	above 200 µM	–	increase in ROS production	–	–	–
82.6 ± 1.79	300 ± 50	38.6 ± 5.56	CC1(C)SC(NC2CCCCC2)=NC1=O [Compound 3e, 2-(Cyclohexylamino)-5,5-dimethylthiazol-4(5H)-one]	–	–	–	–	–	–	–	30–54%	above 200 µM	–	–	115–134%	–	–
94 ± 2.35	40 ± 4	45.6 ± 5.28	O=C1N=C(NC2CCCCC2)SC12CCCCC2 [Compound 3h, 2-(Cyclohexylamino)-1-thia-3-azaspiro [4.5]dec-2-en-4-one]	30–54%	–	–	greater selectivity than the standard compound; also recorded: better activity and selectivity than carbenoxolone	–	–	–	30–54%	–	–	–	115–134%	increase in ROS	–
83.8 ± 4.53	170 ± 35	40 ± 8.34	O=C1N=C(NC2CCCCC2)SC1c1ccccc1 (stereo not drawn) [Compound 3f, 2-(Cyclohexylamino)-5-phenylthiazol-4(5H)-one]	–	–	–	–	30–54%	–	–	–	–	–	–	115–134%	–	–
85.7 ± 4.43	400 ± 5	47.1 ± 0.82	CCCC1SC(NC2CCCCC2)=NC1=O (stereo not drawn) [Compound 3c, 2-(Cyclohexylamino)-5-propylthiazol-4(5H)-one]	30–54%	–	–	–	30–54%	–	–	–	–	–	–	–	–	–
87.3 ± 0.99	90 ± 16	51 ± 0.73	O=C1N=C(NC2CCCCC2)SC12CCC2 [Compound 3i, 6-(Cyclohexylamino)-5-thia-7-azaspiro [3.4]oct-6-en-8-one]	30–54%	–	–	–	–	–	115–134%	30–54%	above 200 µM	–	–	–	increase in ROS	–
68.5 ± 4.28	570 ± 60	38.3 ± 9.96	CCC1SC(NC2CCCCC2)=NC1=O (stereo not drawn) [Compound 3b, 2-(Cyclohexylamino)-5-ethylthiazol-4(5H)-one]	30–54%	–	–	–	–	–	–	30–54%	above 200 µM	–	increase in ROS production	–	–	increase in ROS production
90.4 ± 2.74	80 ± 15	47 ± 1.67	CC(C)C1SC(NC2CCCCC2)=NC1=O (stereo not drawn) [Compound 3d, 2-(Cyclohexylamino)-5-isopropylthiazol-4(5H)-one]	–	–	–	greater selectivity than the standard compound	30–54%	–	–	–	above 200 µM	–	–	–	–	–
